# Data published in US12037419B2 (The Feinstein Institutes for Medical Research, priority 2016, dated 2024).
# How the values were obtained:
# [1] = test system: human monocytes; assay: HMGB1-induced monocyte activation (cytokine mRNA by q-PCR, protein by ELISA/MSD); format: cell-based
# Description: (§1) Monocyte isolation and stimulation: Human PBMCs were obtained following institutional guidelines of the Feinstein Institute for Medical Research (Feinstein) and isolated from blood of healthy donors by density centrifugation (New York Blood Bank). Monocytes were negatively enriched using a human monocyte enrichment kit (Stem Cell Technology). Purity of monocytes (≥90% CD11b+CD14+LAIR-1+) was determined by flow cytometry. […] Splenic murine monocytes from wild type mice, RAGE deficient or LAIR-1 conditional knockout mice were isolated using EasySep mouse monocyte enrichment kit (Stem Cell Technology). C57BL/6 mice, Lysozyme2-Cre transgenic mice were purchased from Jackson Laboratory. Myeloid specific LAIR-1 conditional knockout mice (Lysozyme2-Cre×LAIR fl/fl) were bred and maintained in our facility (Feinstein) under specific pathogen-free conditions. RAGE deficient mice (Department of Medicine, Karolinska Institute Stockholm, Sweden) were maintained at Feinstein. Eight-to ten weeks old male mice were used for experiments. All animal procedures were approved by the Feinstein Institutional Animal Care and Use Committee.
# (§2) RT-PCR analysis and primers: Total RNA was extracted from cells (1-2×10^6 cells per sample) with an RNeasy kit (Qiagen, Venlo, Limburg, Netherlands) and cDNA was generated using an iScript cDNA synthesis kit (Bio-Rad laboratories). Real Time-PCR was performed on a Light Cycler 480 II (Roche) using Light Cycler 480 master mix with primers (Applied Biosystems) for IFNα1 (Hs00256882), IFNα7 (mm02525960), MX1 (Hs00182073, mm01217998), IL-6 (Hs00985639, mm99999064), TNFα (Hs00174128, mm00443258), IL-12a (Hs00168405), Mer (Hs01031973), PDL-1 (Hs01125301), IL-10 (Hs00961622), CD163 (Hs00174705), HPRT1 (Hs99999909, mm01545399) and Polr2a (Hs00172187). The genes of interest were normalized to the expression of house keeping genes and were compared to a control condition with no treatment. The relative induction was calculated by 2-ΔΔCt.
# Transfection: For RNA interference assays, human monocytes were transfected using an Amaxa Nucleofector kit (Lonza) with a greater than 40% transfection efficiency. siRNAs were obtained from Qiagen. The target sequence of human LAIR1-11 is […] (SEQ ID NO:9). The efficiency of knockdown was determined by flow cytometry and q-PCR.
# (§3) Cytokine analysis: Cytokine levels were measured using a Human Proinflammatory 7-plex assay following the manufacturer's protocols (Meso Scale Discovery (MSD). MSD plates were analyzed on the MS2400 imager (MSD). All standards and samples were run in duplicates.
# [2] = target: T1, HMGB1 (Homo sapiens, UniProt P09429); assay: SPR assay of HMGB1 and C1q binding, including redox states of HMGB1
# T1 construct: made in house
# T1 sequence (P09429 1-215): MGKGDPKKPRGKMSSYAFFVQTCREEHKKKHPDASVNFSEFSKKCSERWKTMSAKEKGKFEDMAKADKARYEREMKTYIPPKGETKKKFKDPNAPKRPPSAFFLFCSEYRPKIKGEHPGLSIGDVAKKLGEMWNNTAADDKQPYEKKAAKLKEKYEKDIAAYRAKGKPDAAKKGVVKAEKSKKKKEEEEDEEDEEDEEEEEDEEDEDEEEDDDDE
# Description: Surface Plasmon Resonance analysis (SPR): For real-time binding interaction studies, a BIAcore T200 instrument (GE Healthcare) was used. […] A 1:1 mixture of N-hydroxysuccinimide and N-ethyl-N-(dimethyaminopropyl) carbodiimide was used to activate 2 flow-cells of the CMS chip. […] The analytes were diluted in 1×PBS+0.01% (vol/vol) tween-20 buffer. The analytes were sequentially injected at a flow rate of 30 μl/min for 60 s at 25° C. The KD was dertermined using the BIAcore evaluation software 2.0 (GE Healthcare) supposing a 1:1 binding ratio.
# A 1:1 mixture of N-hyrdoxysuccinimide and N-ethyl-N-(dimethyaminopropyl) carbodiimide was used to activate 2 flow-cells of the CMS chip. […] The analyte (HMGB1) was diluted in 1×HBS-N+0.05% tween-20 buffer (filtered—0.22 um). Three redox states of HMGB1 were sequentially injected at a flow rate of 20 μl/min for 60 s at 25° C., the dissociation time was set for 3 minutes. The concentration was set at 500 nM.
# The analytes were diluted in 1×HBS-N+0.05% tween-20 buffer (filtered—0.22 um). The analytes were sequentially injected at a flow rate of 20 μl/min for 60 s at 25° C. The dissociation time was set for 3 minutes. The KD for each analyte was determined using the Biacore evaluation software 2.0 supposing a 1:1 binding ratio.
# [3] = test system: human monocytes; assay: Induction of anti-inflammatory molecules / M2-like phenotype (Mer, PDL-1, IL-10, CD163) in monocytes; format: cell-based
# Description: as §1
# RT-PCR analysis and primers: Total RNA was extracted from cells (1-2×10^6 cells per sample) with an RNeasy kit (Qiagen, Venlo, Limburg, Netherlands) and cDNA was generated using an iScript cDNA synthesis kit (Bio-Rad laboratories). […] The relative induction was calculated by 2-ΔΔCt.
# as §3
# Flow cytometry: Cells were suspended in staining buffer containing 2% BSA and incubated with Fc block (Miltenyi Biotec) for 15 min on ice. […] Events were acquired using either an LSRII or Fortessa cell analyzer (BD Biosciences), and data were analyzed using FlowJo (Tree star).
# [4] = test system: human monocytes; assay: Monocyte to DC differentiation with GM-CSF and IL-4 (flow cytometry); format: cell-based; settings: compared with C1q alone
# [5] = target: T2, LAIR-1 and RAGE in lipid rafts (Homo sapiens, UniProt Q15109+Q6GTX8); assay: Lipid raft fractionation and Western blot; format: cell-based; settings: in the presence of HMGB1 and C1q
# T2 construct: endogenous in cells; host or cells: monocytes
# T2 sequence (Q6GTX8 22-287): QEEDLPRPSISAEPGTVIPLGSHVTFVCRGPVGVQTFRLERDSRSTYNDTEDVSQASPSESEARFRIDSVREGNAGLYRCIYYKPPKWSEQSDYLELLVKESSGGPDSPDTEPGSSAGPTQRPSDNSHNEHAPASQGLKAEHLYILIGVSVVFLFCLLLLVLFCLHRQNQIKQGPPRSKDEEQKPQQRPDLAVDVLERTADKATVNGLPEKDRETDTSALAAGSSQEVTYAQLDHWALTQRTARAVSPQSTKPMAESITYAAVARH
# T2 sequence (Q15109 23-404): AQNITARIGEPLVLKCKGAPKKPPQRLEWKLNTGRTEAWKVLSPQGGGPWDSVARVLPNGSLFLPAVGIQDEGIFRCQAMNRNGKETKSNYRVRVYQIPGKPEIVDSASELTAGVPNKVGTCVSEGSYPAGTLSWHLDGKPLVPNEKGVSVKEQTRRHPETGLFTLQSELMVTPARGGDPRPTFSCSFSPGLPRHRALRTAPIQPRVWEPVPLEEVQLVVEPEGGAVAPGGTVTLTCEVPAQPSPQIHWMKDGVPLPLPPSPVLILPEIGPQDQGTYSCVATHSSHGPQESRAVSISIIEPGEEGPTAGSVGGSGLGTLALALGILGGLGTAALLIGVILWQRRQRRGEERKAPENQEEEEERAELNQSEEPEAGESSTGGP
# Description: Lipid raft fractionation: Lipid rafts were prepared as described (50). Monocytes (5×10^6) were lysed in 1 ml THE buffer (25 mM Tris, 150 mM NaCl, 5 mM EDTA) containing 1% Triton and incubated for 30 min on ice. Lysates were homogenized with 10 strokes of a dounce homogenizer, mixed with 2 ml of 80% sucrose in TNE buffer, and transferred to a centrifuge tube. Samples were overlaid with 4 ml of 30% sucrose and 2 ml of 5% sucrose in TNE. After centrifugation for 16 h at 180,000 g in a Beckman Coulter SW41Ti rotor, 0.8 ml fractions were collected from the top of the gradient. Each fraction was subjected to slot blot analysis to identify GM1-enriched rafts fraction using FITC-conjugated cholera toxin-B subunit (Sigma). Lipid raft fractions were precipitated with TCA and washed with 70% EtOH, then subjected to slot blot analysis or Western blot.
# [6] = test system: splenic monocytes of C57BL/6 wild type, RAGE deficient or LAIR-1 deficient mice; assay: HMGB1-induced gene transcription in murine splenic monocytes (wild type, RAGE deficient, LAIR-1 deficient); format: cell-based, mouse
# Description: as §1, §2
# [7] = C1q 25 μg/ml, HMGB1 3 μg/ml, 6 h
# [8] = HMGB1 3 μg/ml, C1q 25 μg/ml, 6 h
substance,measurement,setting,value
"C1q: C1q purified from pooled normal human sera, obtained from Complement Technology","HMGB1-induced IFN, IL-6 and TNFα in adherent cell fraction of PBMCs",[1]; [7],inhibited this HMGB1-mediated activation
same,HMGB1-mediated cytokine induction in monocytes treated with LAIR-1-specific siRNA,[1]; [7],no effect
same,HMGB1-induced monocyte activation in the presence of soluble decoy receptor LAIR-2,"[1]; C1q 25 μg/ml, LAIR-2 20 μg/ml, HMGB1 3 μg/ml, 6 h",failed to inhibit monocyte activation
same,transcription of cytokine genes in the absence of HMGB1,"[1]; C1q alone, serum free medium",did not alter transcription
same,"monocyte activation by HMGB1, C1q levels commonly present in SLE patients",[1]; C1q ˜25-50 μg/ml,less inhibitory
same,HMGB1-mediated cytokine transcription and protein induction,"[1]; HMGB1 3 μg/ml, various C1q concentrations, serum free medium, 6 h mRNA, 24 h protein",counteracted the HMGB1-mediated cytokine transcription and protein induction in a dose-dependent manner
same,inhibitory effect of C1q at increased HMGB1 level,[1]; HMGB1 10 μg ml-1,abrogated the inhibitory effect of C1q
same,"monocyte activation by HMGB1, physiologic levels of C1q",[1]; physiologic C1q levels,effectively blocked monocyte activation
same,binding to different redox states of HMGB1,"[2]; disulfide, all thiol, oxidized HMGB1",preferentially binding to the disulfide form of HMGB1
same,Kd,"[2]; read-out: KD of HMGB1 and C1q binding, 25° C., 1:1 binding ratio supposed",200 nM
same,"potency of physiologic C1q levels versus SLE levels (25-50 μg/ml) for Mer, PDL-1, IL-10, CD163 mRNA","[3]; C1q 10, 25, 50 or 75 μg/ml with HMGB1, 24 h",more potent
same,"transcription and protein expression of anti-inflammatory factors (Mer, PDL-1, IL-10, CD163)","[3]; together with HMGB1 3 μg/ml, C1q 25 μg/ml or C1q tail 53 μg/ml, 24 h",induced the transcription and protein expression of a variety of anti-inflammatory factors
same,"expression of CD14 and LAIR-1 after GM-CSF and IL-4, pre-exposure to both HMGB1 and C1q",[4],significantly higher
same,localization of LAIR-1 and RAGE in lipid rafts,[5],LAIR-1 migrated to lipid rafts where LAIR-1 colocalized with RAGE
same,HMGB1-induced gene transcription in RAGE-deficient cells,[6]; [8],no change in HMGB1-induced gene transcription
same,HMGB1-induced proinflammatory cytokine gene transcription in wild type cells,[6]; [8],reduction in HMGB1-induced proinflammatory cytokine gene transcription
same,HMGB1-induced mRNA expression in LAIR-1 deficient monocytes,[6]; Lysozyme-Cre x floxed LAIR-1 mice,no inhibitory effect
